Assay results published in patent US20100016319A1, “ARYLMETHYLENE UREA DERIVATIVE AND USE THEREOF” (TORAY INDUSTRIES, INC. a corporation of Japan, priority 2005, published 2010).

Assays:
[1] = test system: rhythmic bladder contractions; assay: Rhythmic bladder contractions model in anesthetized rats; format: in vivo, SD rats; conditions: i.v., from a dose of 3 mg/kg; 10 minutes before and after administration; FIG. 1
Excerpt: Using anesthetized rat rhythmic bladder contractions model, the inhibitory effect of the arylmethylene urea derivatives of the present invention on the detrusor hyperreflexia was investigated.
Female SD rats were anesthetized with an intraperitoneal injection of urethane (1.0 g/kg). A polyethylene tube was inserted from external urethral orifice into the bladder and the tube was fixed by ligating. The other end of the tube was equipped with a three-necked cock, and one of the necks thereof was connected to a pressure transducer for the measurement of intravesical pressure and the other neck was connected to a syringe for the infusion of physiological saline into the bladder. Thirty minutes after the surgery was completed, physiological saline in appropriate volume was infused via the tube in order to induce rhythmic bladder contractions. After stable rhythmic bladder contractions were obtained, a solution of each test compound or the solvent thereof was administered from a caudal vein in a volume of 0.5 mL/kg, and the effect on the frequency of bladder contractions was investigated. As the test compounds, the compounds of Examples 2 and 9 were used.
In each of the figures, the ordinate indicates the number of rhythmic bladder contractions for 10 minutes before and after administration of the compound.

[2] = test system: cyclophosphamide-induced cystitis rats; assay: Cyclophosphamide-induced overactive bladder (cystitis) model in rats, cystometrogram; format: in vivo, SD rats; conditions: i.v., from a dose of 3 mg/kg; FIG. 3-A
Procedure: Using cyclophosphamide-induced cystitis rats known as an overactive bladder (pollakiuria) model based on the hyperactivity of afferent sensory C-fibers, the effect of compounds on the cystometrograms was investigated.
Female SD rats were pre-treated with cyclophosphamide (150 mg/kg) intraperitoneally one day before (18 hours before) the assay in order to induce cystitis. On the next day, each of rats was anesthetized with an intrapertoneral injection of urethane (1.0 g/kg). Next, a small incision was formed in the hypogastrium, and both ureters were ligated, followed by forming small incision in the ureters at the side of the kidney. Then, the bladder apex was incised and a polyethylene tube filled with physiological saline was inserted and indwelled. The other end of the tube was equipped with a three-necked cock, and one of the necks thereof was connected to a pressure transducer for the measurement of intravesical pressure and the other neck was connected to an infusion pomp in order to infuse physiological saline. Thirty minutes after the surgery was completed, physiological saline was continuously infused (3.6 mL/hr) in order to obtain a continuous cystometrograms. One minute before the infusion, a solution of each test compound or the solvent thereof was administered from a caudal vein in a volume of 0.5 mL/kg. […]

[3] = test system: TNFα production in human whole blood; assay: Inhibitory activity on LPS-induced TNFα production in human whole blood; format: cell-based; conditions: LPS stimulation, 37° C., 5 hours
Procedure: Inhibitory activities of the arylmethylene urea derivatives according to the present invention to the production of TNFα induced by stimulation with a lipopolysaccharide (LPS) were investigated using human whole blood.
After mixing each of the compounds of the present invention with human blood in a 96-well flat-bottom plate, the lipopolysaccharide (LPS) was added and the mixture was allowed to react at 37° C. for 5 hours. After the reaction, the resulting mixture was centrifuged at room temperature for 15 minutes, and supernatant of the resultant was recovered. For the quantification of TNFα in the supernatant, human cytokine kit (CIS biointernational) was used.

[4] = test system: DSS-induced colitis; assay: Dextran sulfate sodium (DSS)-induced colitis model of mice, rectal bleeding score; format: in vivo, BALB/c mice; conditions: 30 mg/kg orally every day from Day 27 to Day 31
Procedure: (§1) Female BALB/c mice (Japan SLC) of 7 to 9 weeks old were allowed to freely drink 3 w/v % dextran sulfate sodium (DSS) for 5 to 7 days, and then to freely drink sterilized distilled water for 5 days. This procedure was repeated 3 times to induce colitis. The uninduced (background) group was allowed to freely drink sterilized distilled water. The compound described in Example 2 was orally administered to the mice at a dose of 30 mg/kg every day from Day 27 to Day 31 counted from the start of the test, and rectal bleeding was scored (0: occult blood-negative, 2: occult blood-positive, 4: apparent bleeding) by using the method described by Murthy et al (see, for example, Dig Dis Sci., 38, 1722 (1993)).
(§2) On the other hand, the same test as in Example 452 was repeated except that 1-(4-(pyridin-4-yloxy)benzyl)-3-(3-t-butylisoxazol-5-yl)urea (the structural formula thereof is shown below) which is a compound included in WO 04/037789 was used in place of the compound of Example 2. The score on Day 32 (the last day of the test) of the colitis-uninduced group was 0, while the score of the colitis-induced group rose to 1.2±0.2.
as §1, with “Example 10” for “Example 2”
as §2, with “Example 453” for “Example 452”, “that 1-(4-(pyridin-4-yloxy)benzyl)-3-([…])urea” for “that 1-(4-(pyridin-4-yloxy)benzyl)-3-(3-t-butylisoxazol-5-yl)urea”, “Example 10.” for “Example 2.”

IC50 [3]: 720 nM
SMILES: Cc1ccc(-n2nc(C(C)(C)C)cc2NC(=O)NCc2ccccc2Oc2ccnc(N3CCOCC3)n2)cc1 [Example 2, 1-(2-(2-morpholinopyrimidin-4-yloxy)benzyl)-3-(3-t-butyl-1-p-tolyl-1H-pyrazol-5-yl)urea]
effect on the number of rhythmic bladder contractions [1]: inhibited the rhythmic bladder contractions dose-dependently
effect on the increase in the frequency of urination (voiding episodes during 20 minutes) [2]: dose-dependently reduced the increase in the frequency of urination
amelioration of symptoms / improvement in the rectal bleeding score (in words) ([4]; Day 32): apparent amelioration of symptoms was observed
rectal bleeding score on Day 32 (0: occult blood-negative, 2: occult blood-positive, 4: apparent bleeding) ([4]; female BALB/c mice, 3 w/v % DSS): 0.2±0.1
